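Cultured in 96-well plates, cells were exposed to test compound for 48 hours across five concentrations. GI50 = concentration required for 50% inhibition of growth. At the TGI there is no net growth.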
Assays:
Experiment in all cases: inhibition of tumour cell growth, NCI panel, 48 h
A498 renal = system: A498 renal
A549 NSCLC = system: A549 NSCLC
ACHN renal = system: ACHN renal
BT-549 breast = system: BT-549 breast
CAKI-1 renal = system: CAKI-1 renal
CCRF-CEM leukemia = system: CCRF-CEM leukemia
COLO 205 colon = system: COLO 205 colon
DU-145 prostate = system: DU-145 prostate
EKVX NSCLC = system: EKVX NSCLC
HCC-2998 colon = system: HCC-2998 colon
HCT-116 colon = system: HCT-116 colon
HCT-15 colon = system: HCT-15 colon
HL-60(TB) leukemia = system: HL-60(TB) leukemia
HOP-62 NSCLC = system: HOP-62 NSCLC
HOP-92 NSCLC = system: HOP-92 NSCLC
HS 578T breast = system: HS 578T breast
HT29 colon = system: HT29 colon
IGROV1 ovarian = system: IGROV1 ovarian
K-562 leukemia = system: K-562 leukemia
KM12 colon = system: KM12 colon
LOX IMVI melanoma = system: LOX IMVI melanoma
M14 melanoma = system: M14 melanoma
MALME-3M melanoma = system: MALME-3M melanoma
MCF7 breast = system: MCF7 breast
MDA-MB-231 breast = system: MDA-MB-231 breast
MDA-MB-435 = system: MDA-MB-435
MOLT-4 leukemia = system: MOLT-4 leukemia
NCI-H226 lung = system: NCI-H226 lung
NCI-H23 lung = system: NCI-H23 lung
NCI-H460 lung = system: NCI-H460 lung
NCI-H522 lung = system: NCI-H522 lung
NCI/ADR-RES ovarian = system: NCI/ADR-RES ovarian
OVCAR-3 ovarian = system: OVCAR-3 ovarian
OVCAR-4 ovarian = system: OVCAR-4 ovarian
OVCAR-5 ovarian = system: OVCAR-5 ovarian
OVCAR-8 ovarian = system: OVCAR-8 ovarian
PC-3 prostate = system: PC-3 prostate
RPMI-8226 leukemia = system: RPMI-8226 leukemia
RXF 393 renal = system: RXF 393 renal
SF-268 CNS = system: SF-268 CNS
SF-295 CNS = system: SF-295 CNS
SF-539 CNS = system: SF-539 CNS
SK-MEL-2 melanoma = system: SK-MEL-2 melanoma
SK-MEL-28 melanoma = system: SK-MEL-28 melanoma
SK-MEL-5 melanoma = system: SK-MEL-5 melanoma
SK-OV-3 ovarian = system: SK-OV-3 ovarian
SN12C renal = system: SN12C renal
SNB-19 CNS = system: SNB-19 CNS
SNB-75 CNS = system: SNB-75 CNS
SR leukemia = system: SR leukemia
SW-620 colon = system: SW-620 colon
T-47D breast = system: T-47D breast
TK-10 renal = system: TK-10 renal
U251 CNS = system: U251 CNS
UACC-257 melanoma = system: UACC-257 melanoma
UACC-62 melanoma = system: UACC-62 melanoma
UO-31 renal = system: UO-31 renal

With `Nc1ccc(-n2c(=O)oc3ccc(Cl)cc3c2=O)c(Cl)c1` the GI50 (A498 renal) was 37.2 nM, the TGI (A498 renal) was 114 nM and the GI50 (A549 NSCLC) was 234 nM. The TGI (A549 NSCLC) was > 38700 nM, the GI50 (ACHN renal) was 169 nM and the TGI (ACHN renal) was 4410 nM. It also gave a GI50 (BT-549 breast) of 84.4 nM, a TGI (BT-549 breast) of 338 nM and a GI50 (CAKI-1 renal) of 77 nM. For the same compound, the TGI (CAKI-1 renal) was 479 nM, the GI50 (CCRF-CEM leukemia) was 139 nM and the TGI (CCRF-CEM leukemia) was 1560 nM. The GI50 (COLO 205 colon) was 2970 nM, the TGI (COLO 205 colon) was 8260 nM and the GI50 (DU-145 prostate) was 202 nM. For the same compound, the TGI (DU-145 prostate) was 14000 nM, the GI50 (EKVX NSCLC) was 213 nM and the TGI (EKVX NSCLC) was > 56300 nM. It also gave a GI50 (HCC-2998 colon) of 377 nM, a TGI (HCC-2998 colon) of 2650 nM and a GI50 (HCT-116 colon) of 108 nM. The TGI (HCT-116 colon) was 520 nM, the GI50 (HCT-15 colon) was 138 nM and the TGI (HCT-15 colon) was 21600 nM. It also gave a GI50 (HL-60(TB) leukemia) of 49.9 nM, a TGI (HL-60(TB) leukemia) of 267 nM and a GI50 (HOP-62 NSCLC) of 202 nM. For the same compound, the TGI (HOP-62 NSCLC) was 1590 nM, the GI50 (HOP-92 NSCLC) was 28.1 nM and the TGI (HOP-92 NSCLC) was 168 nM. For the same compound, the GI50 (HS 578T breast) was 81 nM, the TGI (HS 578T breast) was 562 nM and the GI50 (HT29 colon) was 1170 nM. For the same compound, the TGI (HT29 colon) was > 35300 nM, the GI50 (IGROV1 ovarian) was 140 nM and the TGI (IGROV1 ovarian) was 36700 nM. The GI50 (K-562 leukemia) was 108 nM, the TGI (K-562 leukemia) was > 100000 nM and the GI50 (KM12 colon) was 255 nM. The TGI (KM12 colon) was 908 nM, the GI50 (LOX IMVI melanoma) was 128 nM and the TGI (LOX IMVI melanoma) was 946 nM. The GI50 (M14 melanoma) was 104 nM, the TGI (M14 melanoma) was 680 nM and the GI50 (MALME-3M melanoma) was 83.8 nM. The TGI (MALME-3M melanoma) was 362 nM, the GI50 (MCF7 breast) was 262 nM and the TGI (MCF7 breast) was > 31800 nM. It also gave a GI50 (MDA-MB-231 breast) of 111 nM, a TGI (MDA-MB-231 breast) of 1680 nM and a GI50 (MDA-MB-435) of 113 nM. The TGI (MDA-MB-435) was 883 nM, the GI50 (MOLT-4 leukemia) was 368 nM and the TGI (MOLT-4 leukemia) was 2320 nM. For the same compound, the GI50 (NCI-H226 lung) was 154 nM, the TGI (NCI-H226 lung) was 787 nM and the GI50 (NCI-H23 lung) was 92.1 nM. For the same compound, the TGI (NCI-H23 lung) was 486 nM, the GI50 (NCI-H460 lung) was 109 nM and the TGI (NCI-H460 lung) was 3740 nM. The GI50 (NCI-H522 lung) was 74.1 nM, the TGI (NCI-H522 lung) was 588 nM and the GI50 (NCI/ADR-RES ovarian) was 172 nM. For the same compound, the TGI (NCI/ADR-RES ovarian) was 1030 nM, the GI50 (OVCAR-3 ovarian) was 107 nM and the TGI (OVCAR-3 ovarian) was 7210 nM. The GI50 (OVCAR-4 ovarian) was 111 nM, the TGI (OVCAR-4 ovarian) was > 94800 nM and the GI50 (OVCAR-5 ovarian) was 467 nM. The TGI (OVCAR-5 ovarian) was > 100000 nM, the GI50 (OVCAR-8 ovarian) was 147 nM and the TGI (OVCAR-8 ovarian) was 5530 nM. It also gave a GI50 (PC-3 prostate) of 264 nM, a TGI (PC-3 prostate) of 9590 nM and a GI50 (RPMI-8226 leukemia) of 55.8 nM. The TGI (RPMI-8226 leukemia) was 256 nM, the GI50 (RXF 393 renal) was 83.8 nM and the TGI (RXF 393 renal) was 293 nM. The GI50 (SF-268 CNS) was 108 nM, the TGI (SF-268 CNS) was 2330 nM and the GI50 (SF-295 CNS) was 1070 nM. For the same compound, the TGI (SF-295 CNS) was 2800 nM, the GI50 (SF-539 CNS) was 116 nM and the TGI (SF-539 CNS) was 1010 nM. The GI50 (SK-MEL-2 melanoma) was 207 nM, the TGI (SK-MEL-2 melanoma) was 807 nM and the GI50 (SK-MEL-28 melanoma) was 100 nM. For the same compound, the TGI (SK-MEL-28 melanoma) was 730 nM, the GI50 (SK-MEL-5 melanoma) was 48 nM and the TGI (SK-MEL-5 melanoma) was 136 nM. It also gave a GI50 (SK-OV-3 ovarian) of 93.4 nM, a TGI (SK-OV-3 ovarian) of 1600 nM and a GI50 (SN12C renal) of 97.1 nM. The TGI (SN12C renal) was 1070 nM, the GI50 (SNB-19 CNS) was 122 nM and the TGI (SNB-19 CNS) was > 100000 nM. For the same compound, the GI50 (SNB-75 CNS) was 89.4 nM, the TGI (SNB-75 CNS) was 410 nM and the GI50 (SR leukemia) was 98.7 nM. It also gave a GI50 (SW-620 colon) of 161 nM, a TGI (SW-620 colon) of 8180 nM and a GI50 (T-47D breast) of 67.9 nM. It also gave a TGI (T-47D breast) of 263 nM, a GI50 (TK-10 renal) of 187 nM and a TGI (TK-10 renal) of 20400 nM. For the same compound, the GI50 (U251 CNS) was 118 nM, the TGI (U251 CNS) was > 34500 nM and the GI50 (UACC-257 melanoma) was 74.1 nM. For the same compound, the TGI (UACC-257 melanoma) was 433 nM, the GI50 (UACC-62 melanoma) was 52.7 nM and the TGI (UACC-62 melanoma) was 220 nM. It also gave a GI50 (UO-31 renal) of 87.2 nM and a TGI (UO-31 renal) of 533 nM.

Source: PubChem BioAssay (NCI)
